From PMC4308083, “Cytokine-Induced Loss of Glucocorticoid Function: Effect of Kinase Inhibitors, Long-Acting β2-Adrenoceptor Agonist and Glucocorticoid Receptor Ligands” (PLoS ONE, 2015)

Experiments:
2×GRE reporter = test: Modulation of dexamethasone/NR3C1 ligand-induced 2×GRE reporter activation (kinase inhibitors, TNF, formoterol) in BEAS-2B cells; format: cell-based, human; conditions: for Effect on dexamethasone-induced 2×GRE reporter activation (concentration-response): 30 min pre-treatment, 6 h (Fig. 3B, Fig. 4), JNK inhibitor VIII only at 30 μM, PKC inhibitors above 1 μM
Experimental: (§1) BEAS-2B cells stably transfected with a glucocorticoid response element (2×GRE) driven luciferase reporter plasmid, pGL3.neo.TATA.neo [23], were cultured in medium containing 0.25 mg/ml G-418 (Promega, Madison, WI). Cells were grown to confluence in 24 or 48 well plates and incubated overnight in serum-free media prior to experiments. Cells were harvested in reporter lysis buffer and luciferase assays performed according to the manufacturer’s instructions (Firefly Luciferase Assay Kit; Biotium; Hayward, CA) using a 20/20n luminometer (Promega).
Data (n = 7), expressed as a percentage of Dex activation, are plotted as means ± S.E. BEAS-2B 2×GRE cells were pre-treated for 30 min with the indicated concentrations of B. PS or JNK or C. JNK in the presence or absence of 10 μM PS, before addition of 10 ng/ml TNF. After 1 h, 10 μM Dex was added and cells harvested 6 h later for luciferase assay. […] D+T indicates Dex plus TNF treatment.
Data (n = 3–4), expressed as fold activation, are plotted as means ± S.E. D+T indicates Dex plus TNF treatment.
(§2) Cells were harvested after 6 h for luciferase assays. Data (n = 7), expressed as fold activation, are plotted as means ± S.E. Lines of best fit were added in panel B. Statistical analyses were performed by ANOVA with a Dunnett’s test comparing each NR3C1 ligand alone versus in the presence of TNF and/or Form. *, P<0.05; **, P<0.01; ***, P<0.001.

AKT1 phosphorylation = test: Western blot of AKT1 phosphorylation in BEAS-2B cells; format: cell-based; conditions: Homo sapiens, 30 min pre-treatment, TNF 10 ng/ml 30 min, western blot (S2 Fig.), read-out: EC50 for block of AKT1 phosphorylation
Excerpt: (§3) Cells were lysed in 1× Laemmli buffer supplemented with phosphatase inhibitors (Sigma-Aldrich) and 1× complete protease inhibitor cocktail (Roche; Indianapolis, IN), size fractionated on 12% acrylamide gels and subsequently electro-transferred onto Hybond enhanced chemiluminescent membranes (GE Healthcare; Waukesha, WI). Membranes were blocked in 5% milk in tris-buffered saline containing 1% tween 20 and probed with antibodies against phospho-jun proto-oncogene (pJUN; pc-Jun) (9164; Cell Signaling Technology; Danvers, MA), nuclear factor of kappa light polypeptide gene enhancer in B-cells inhibitor, alpha (NFKBIA; IκBα) (sc-371; Santa Cruz Biotechnology; Dallas, TX), phospho-NFKBIA (9246; Cell Signaling Technology), phospho-AKT1 (9271S; Cell Signaling Technology), AKT (9272S; Cell Signaling Technology) and GAPDH (4699–9555(ST); AbD Serotec; Raleigh, NC). After washing, membranes were incubated with horseradish peroxidase-conjugated anti-rabbit (111–035–003; Jackson ImmunoResearch Laboratories Inc; West Grove, PA) or anti-mouse immunoglobulin (115–035–003; Jackson ImmunoResearch Laboratories Inc). Detection was by enhanced chemiluminescence (Pierce ECL Western Blotting Substrate; Thermo Fisher Scientific Inc.; Rockford, IL) and visualization by autoradiography.
Cells were harvested after 30 min for western blotting and probed for phospho v-akt murine thymoma viral oncogene homolog 1 (pAKT1), AKT1 and glyceraldehyde 3-phosphate dehydrogenase (GAPDH). (PDF) Click here for additional data file.

[1] = test system: NFKBIA (IκBα) phosphorylation; test: Western blot of TNF-induced NFKBIA phosphorylation in BEAS-2B cells; format: cell-based, human; conditions: 30 min pre-treatment, TNF 2 min, western blot (S1 Fig.), read-out: EC50 for reduction of TNF-induced NFKBIA phosphorylation
Excerpt: as §3, with “autoradiography. […]” for “autoradiography.”

[2] = test system: CDKN1C, DUSP1, RGS2 and TSC22D3 mRNA in BEAS-2B cells; test: RT-PCR of glucocorticoid-inducible gene expression in BEAS-2B cells
Experimental: Cells were harvested 6 h after Dex addition.
BEAS-2B cells were pre-treated for 30 min with either 10 or 3 μM of the JNK MAPK inhibitor JNK inhibitor VIII (JNK) or 10 μM of the IKK2 inhibitor PS-1145 (PS), before addition of 10 ng/ml tumor necrosis factor-α (TNF).
Cells were harvested 6 h after NR3C1 ligand addition.

[3] = biological target: T1, glucocorticoid receptor (NR3C1) (Homo sapiens, UniProt P04150); test: 2×GRE luciferase reporter activation by NR3C1 ligands in BEAS-2B cells; format: cell-based; conditions: BEAS-2B 2×GRE reporter; for pEC50 (M), +TNF / E max (% Dex), +TNF: TNF 10 ng/ml pre-treatment 1 h; for pEC50 (M), +TNF / E max (% Dex), +TNF / pEC50 (M), Naive / E max (% Dex), Naive: 6 h; for E max (% Dex), +TNF / E max (% Dex), Naive: percent of 1 μM dexamethasone; for pEC50 (M), Naive / E max (% Dex), Naive: no TNF
T1 construct: BEAS-2B cells stably transfected with a glucocorticoid response element (2×GRE) driven luciferase reporter plasmid; endogenous in cells; host or cells: BEAS-2B human bronchial epithelial cells stably carrying a 2×GRE luciferase reporter
T1 sequence (P04150 1-777): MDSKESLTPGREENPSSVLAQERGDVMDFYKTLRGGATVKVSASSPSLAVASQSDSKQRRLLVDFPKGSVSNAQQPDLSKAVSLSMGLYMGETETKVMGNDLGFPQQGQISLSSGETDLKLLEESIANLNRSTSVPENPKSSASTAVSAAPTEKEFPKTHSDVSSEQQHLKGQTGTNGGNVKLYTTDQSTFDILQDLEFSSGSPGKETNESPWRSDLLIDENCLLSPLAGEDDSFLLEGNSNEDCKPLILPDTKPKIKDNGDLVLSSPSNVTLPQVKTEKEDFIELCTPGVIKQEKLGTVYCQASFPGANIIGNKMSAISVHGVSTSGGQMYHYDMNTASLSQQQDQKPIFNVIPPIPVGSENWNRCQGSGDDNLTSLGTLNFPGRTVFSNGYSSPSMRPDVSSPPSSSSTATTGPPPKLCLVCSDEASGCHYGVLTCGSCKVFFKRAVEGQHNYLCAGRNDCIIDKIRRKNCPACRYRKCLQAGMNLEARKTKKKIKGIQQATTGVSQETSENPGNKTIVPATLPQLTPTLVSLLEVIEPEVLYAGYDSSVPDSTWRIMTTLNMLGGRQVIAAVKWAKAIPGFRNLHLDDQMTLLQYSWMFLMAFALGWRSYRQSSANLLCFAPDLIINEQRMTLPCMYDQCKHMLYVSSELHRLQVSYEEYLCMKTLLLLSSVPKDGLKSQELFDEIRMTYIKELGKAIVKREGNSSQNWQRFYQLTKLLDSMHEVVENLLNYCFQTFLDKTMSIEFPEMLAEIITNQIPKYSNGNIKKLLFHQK
Experimental: as §1
Cells were harvested 6 h after NR3C1 ligand addition for luciferase assay.
as §2

[4] = test system: TSC22D3 mRNA in primary ASM cells; test: RT-PCR of dexamethasone-inducible gene expression in primary human airway smooth muscle (ASM) cells; format: cell-based; conditions: TNF 10 ng/ml or IL1B 1 ng/ml, 1 μM dexamethasone, 6 h
[5] = test system: TSC22D3 mRNA in primary HBE cells; test: RT-PCR of dexamethasone-inducible gene expression in primary human bronchial epithelial (HBE) cells; format: cell-based; conditions: TNF 10 ng/ml (at 1 h) or IL1B 1 ng/ml (at 18 h), 1 μM dexamethasone
[6] = 10 μM inhibitor 30 min pre-treatment, 6 h (Fig. 3A)

Compound: COc1cccc(-c2cc(=O)c3ccccc3o2)c1N [PD098059]
- Effect on dexamethasone-induced 2×GRE reporter activation (2×GRE reporter; [6]): significantly reduced

Compound: Oc1cccc(-c2nc(N3CCOCC3)c3oc4ncccc4c3n2)c1 [PI103]
- EC50 (AKT1 phosphorylation): ~70 nM
- Effect on dexamethasone-induced 2×GRE reporter activation (concentration-response) (2×GRE reporter; dexamethasone): concentration-dependently reduced

Compound: O=C(Nc1cc(Cl)cc2c1[nH]c1cnccc12)c1cccnc1 [PS-1145]
- EC50 [1]: ~1000 nM
- 2×GRE reporter induction restored in presence of TNF, % of that induced by dexamethasone (2×GRE reporter; 10 μM inhibitor 30 min pre-treatment, TNF 10 ng/ml, dexamethasone, 6 h (Fig. 3A)): 73%
- Effect on dexamethasone-induced 2×GRE reporter activation (concentration-response) (2×GRE reporter; dexamethasone): no effect
- TNF-induced repression reversed to % of the response to dexamethasone (2×GRE reporter; concentration-response, TNF 10 ng/ml, dexamethasone, 6 h (Fig. 3B), repression ~60% without inhibitor): 76%
- EC50 (2×GRE reporter; read-out: EC50 for reversal of TNF-induced repression of 2×GRE reporter, TNF 10 ng/ml, dexamethasone, 6 h (Fig. 3B)): 600 nM
- Additional effect of 10 μM PS-1145 on 2×GRE reporter activity with JNK inhibitor VIII (2×GRE reporter; up to 10 μM JNK inhibitor VIII, TNF, dexamethasone (Fig. 3C)): no obvious additional effect
- Effect on DUSP1 mRNA expression with dexamethasone plus TNF plus formoterol ([2]; 10 μM PS-1145, 6 h (Fig. 7)): significantly enhanced
- Effect on dexamethasone-induced mRNA expression of CDKN1C, DUSP1, RGS2, TSC22D3 in absence or presence of TNF ([2]; JNK inhibitor VIII 3 or 10 μM, PS-1145 10 μM, 6 h (Fig. 7)): no significant effect

Compound: C[C@@H]1C[C@H]2[C@@H]3CCC4=CC(=O)C=C[C@]4(C)[C@@]3(F)[C@@H](O)C[C@]2(C)[C@H]1C(=O)CC#N [RU24858]
- Agonist type on 2×GRE reporter relative to dexamethasone [3]: partial agonists
- pEC50 (M), +TNF [3]: 7.3 ± 0.0 * M
- E max (% Dex), +TNF [3]: 46.0 ± 0.8 % Dex
- pEC50 (M), Naive [3]: 7.4 ± 0.0 M
- E max (% Dex), Naive [3]: 74.9 ± 1.1 % Dex

Compound: Cn1cc(C2=C(c3cn(CCCSC(=N)N)c4ccccc34)C(=O)NC2=O)c2ccccc21 [Ro 31–8220]
- Effect on dexamethasone-induced 2×GRE reporter activation (concentration-response) (2×GRE reporter; dexamethasone): reduced

Compound: C[S+]([O-])c1ccc(-c2nc(-c3ccncc3)c(-c3ccc(F)cc3)[nH]2)cc1 (stereo not drawn) [SB203580]
- Effect on dexamethasone-induced 2×GRE reporter activation (2×GRE reporter; [6]): no effect

Compound: COC[C@H]1OC(=O)c2coc3c2[C@@]1(C)C1=C(C3=O)[C@@H]2CCC(=O)[C@@]2(C)C[C@H]1OC(C)=O [wortmannin]
- EC50 (AKT1 phosphorylation): ~20 nM
- Effect on dexamethasone-induced 2×GRE reporter activation (concentration-response) (2×GRE reporter; dexamethasone): concentration-dependently reduced

Compound: GSK9027
- Agonist type on 2×GRE reporter relative to dexamethasone [3]: partial agonists
- pEC50 (M), +TNF [3]: 7.0 ± 0.1 M
- E max (% Dex), +TNF [3]: 40.7 ± 0.9 % Dex
- pEC50 (M), Naive [3]: 7.1 ± 0.0 M
- E max (% Dex), Naive [3]: 77.2 ± 1.0 % Dex

Compound: IL1B: pro-inflammatory cytokine interleukin-1β (R&D systems), used at 1 ng/ml
- Repression of dexamethasone-induced TSC22D3 expression [4]: 43%
- Maximal repression of dexamethasone-induced TSC22D3 expression [5]: 62%
